Laboratory results reported in publication PMC6003237 (Bioorganic & medicinal chemistry, 2017).
Where “and” joins values, the source holds several entries; their conditions need not be identical. Equal entries are not always repeated. Where two headings read alike, the source gives them in different places. *1 amine or outer side, *2 acyl side, *3 side chain or, on linkers, in order; H or OH if unused. Where a SMILES comes first, the peptide text is derived from it. [ ]: non-standard residue; d: D form. The star is where a group is joined. Emetine(N2') = CC[C@H]1CN2CCc3cc(OC)c(OC)cc3[C@@H]2C[C@@H]1C[C@@H]1c2cc(OC)c(OC)cc2CCN1*; PABC = O=C(OCc1ccc(N[*:1])cc1)[*:2]

Experiments:
PC-3 xenografts = conditions: dose of 8 mg/kg, earlier studies, ref not given; cited from earlier work
mice [1] = conditions: for MTD (nmol injected): mice of average body weight 25 g; for dose producing acute toxicity (convulsions and death) / dose producing acute toxicity (convulsions and death), nmol: single IV injection
[2] = system: NCI 60 cancer cell screen; conditions: ref not given; cited from earlier work
DPPIV = conditions: activation by DPPIV; ref [9]; cited from earlier work
[3] = system: different cancer cell lines; conditions: cited from earlier work
[4] = molecular target: Purified native human prostate specific antigen (PSA) (Homo sapiens, UniProt P07288); assay: PSA-mediated hydrolysis of prodrug ex-vivo; format: biochemical
LNCaP = assay: MTT cytotoxicity in PSA producing LNCaP cells; format: cell-based, human
[5] = human, 200 µM
[6] = PBS
[7] = Hydrolysis in LNCaP conditioned media; conditions: serum containing LNCaP conditioned media, 37 °C, 24–72 h
[8] = Stability / hydrolysis in 10% FBS
PC3 = assay: MTT cytotoxicity in non-PSA-producing PC3 cells; format: cell-based, human
CWR22Rv1 = assay: MTT cytotoxicity in low PSA-producing CWR22Rv1 cells; format: cell-based, human
[9] = Stability in human plasma; format: in vitro ADME; conditions: 48 h
mice [10] = conditions: earlier studies of the authors, ref not given; cited from earlier work

Purified native human prostate specific antigen (PSA), sequence (P07288 25-261): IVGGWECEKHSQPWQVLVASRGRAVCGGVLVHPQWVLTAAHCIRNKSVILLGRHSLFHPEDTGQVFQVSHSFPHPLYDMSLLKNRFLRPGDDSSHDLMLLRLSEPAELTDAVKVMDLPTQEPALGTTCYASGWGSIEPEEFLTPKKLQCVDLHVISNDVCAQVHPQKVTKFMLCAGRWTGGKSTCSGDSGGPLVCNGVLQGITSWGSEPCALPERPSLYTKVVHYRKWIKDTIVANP

## CC[C@H]1CN2CCc3cc(OC)c(OC)cc3[C@@H]2C[C@@H]1C[C@H]1NCCc2cc(OC)c(OC)cc21 [Emetine, emetine, reference compound]
PC-3 xenografts
  therapeutic efficacy: no therapeutic efficacy
Mice [1]; IV injection, mice
  Effects/observations at higher doses: Convulsion and death within 1 min of injection at 16 mg/kg
Mice [1]; IV injection
  MTD (nmol injected): 416 nmol
Mice [1]; mice
  dose producing acute toxicity (convulsions and death): 16 mg/kg
[2]
  GI50: 27 nM

## CC[C@H]1CN2CCc3cc(OC)c(OC)cc3[C@@H]2C[C@@H]1C[C@@H]1c2cc(OC)c(OC)cc2CCN1C(=O)OCc1ccc(NC(=O)[C@@H]2CCCN2C(=O)[C@H](C)N)cc1 [compound 10, 4-((S)-1-(L-Alanyl)pyrrolidine-2-carboxamido)benzyl (R)-1-(((2R,3R,11bS)-3-ethyl-9,10-dimethoxy-1,3,4,6,7,11b-hexahydro-2H-pyrido[2,1-a]isoquinolin-2-yl)methyl)-6,7-dimethoxy-3,4-dihydroisoquinoline-2(1H)-carboxylate]
DPPIV
  time for efficient quantitative release of emetine: ≤ 24 h
Mice [1]; IV injection, mice
  Effects/observations at higher doses: Convulsion and death at higher doses
Mice [1]; IV injection
  MTD (nmol injected): 1003 nmol and 1002 nmol
[3]; cancer cell lines, ref [6]–[9]
  in vitro cytotoxicity compared to emetine: equipotency with emetine

## CC[C@H]1CN2CCc3cc(OC)c(OC)cc3[C@@H]2C[C@@H]1C[C@@H]1c2cc(OC)c(OC)cc2CCN1C(=O)OCc1ccc(NC(=O)[C@H](CC(C)C)NC(=O)[C@@H](N)CO)cc1 [compound 14, 4-((S)-2-((S)-2-Amino-3-hydroxypropanamido)-4-methyl-pentanamido) benzyl (R)-1-(((2R,3R,11bS)-3-ethyl-9,10-dimethoxy-1,3,4,6,7,11b-hexahydro-2H-pyrido[2,1-a]isoquinolin-2-yl)methyl)-6,7-dimethoxy-3,4-dihydroisoquinoline-2(1H)-carboxylate]
[4]; Purified PSA, 37 °C, 72 h
  % Emetine after 72 h incubation: 0.0%
[4]; purified PSA, 37 °C, 24–72 h
  hydrolysis / conversion to emetine on incubation with purified PSA (LCMS): not observed
LNCaP
  cytotoxicity compared to emetine: comparable to emetine
LNCaP; Homo sapiens, LNCaP, 72 h
  IC50: < 100 nM
Mice [1]; IV injection, mice
  Effects/observations at higher doses: Toxic effect was observed at higher doses
Mice [1]; IV injection
  MTD (nmol injected): 1541 nmol
[5]
  % Ser-Leu-PABC-Emetine, 14 after 72 h incubation: 100%
[6]; 37 °C, 24–72 h
  hydrolysis to emetine or any product (LCMS): did not result in its hydrolysis to emetine or any product of hydrolysis
[6]; 37 °C, 72 h
  % Emetine after 72 h incubation: 0.0%
  % Ser-Leu-PABC-Emetine, 14 after 72 h incubation: 100%
[7]
  hydrolysis to emetine or any product (LCMS): did not result in its hydrolysis to emetine or any product of hydrolysis
[8]; 10% FBS containing media, 37 °C, 24–72 h
  hydrolysis to emetine or any product (LCMS): did not result in its hydrolysis to emetine or any product of hydrolysis
PC3
  cytotoxicity compared to emetine: comparable to emetine
PC3; Homo sapiens, PC-3, 72 h
  IC50: < 100 nM

## CC[C@@H]1C[C@@H](C[C@@H]2c3cc(OC)c(OC)cc3CCN2C(=O)OCc2ccc(NC(=O)[C@H](CC(C)C)NC(=O)[C@H](CO)NC(C)=O)cc2)[C@H]2c3cc(OC)c(OC)cc3CCN2C1 [compound 15, 4-((S)-2-((S)-2-Acetamido-3-hydroxypropanamido)-4-methyl-pentanamido) benzyl (R)-1-(((2R,3R,11bS)-3-ethyl-9,10-dimethoxy-1,3,4,6,7,11b-hexahydro-2H-pyrido[2,1-a]isoquinolin-2-yl)methyl)-6,7-dimethoxy-3,4-dihydroisoquinoline-2(1H)-carboxylate]
LNCaP; LNCaP (Fig. 3A)
  concentration at which significant cytotoxicity was demonstrated: 10,000 nM
PC3; PC3 (Fig. 3B)
  concentration at which significant cytotoxicity was demonstrated: 10,000 nM

## CC[C@H]1CN2CCc3cc(OC)c(OC)cc3[C@@H]2C[C@@H]1C[C@@H]1c2cc(OC)c(OC)cc2CCN1C(=O)OCc1ccc(NC(=O)[C@H](CC(C)C)NC(=O)[C@H](CO)NC(=O)[C@H](CCC(N)=O)NC(=O)[C@H](CC(C)C)NC(=O)[C@H](CCCCN)NC(=O)[C@H](CO)NC(=O)[C@H](CO)NC(=O)[C@H](Cc2c[nH]cn2)NC(C)=O)cc1 [compound 16] (Ac-HSSKLQSL[PABC]-{Emetine(N2')})
[4]; purified PSA, 2 h
  % of 14 observed after incubation with PSA (LCMS): 20%
[4]; purified PSA, 6 h
  % of 14 observed after incubation with PSA (LCMS): 50%
[4]; purified PSA, 20 h
  % of 14 observed after incubation with PSA (LCMS): 98%
LNCaP; LNCaP
  IC50 fold higher than the IC50 of emetine: about 2 fold
CWR22Rv1
  IC50 fold higher than the IC50 of emetine: about 2 fold

## CC[C@H]1CN2CCc3cc(OC)c(OC)cc3[C@@H]2C[C@@H]1C[C@@H]1c2cc(OC)c(OC)cc2CCN1C(=O)OCc1ccc(NC(=O)[C@H](CC(C)C)NC(=O)[C@H](CO)NC(=O)[C@H](CCC(N)=O)NC(=O)[C@H](CC(C)C)NC(=O)[C@H](CCCCN)NC(=O)[C@H](CO)NC(=O)[C@H](CO)NC(=O)[C@H](Cc2cnc[nH]2)NC(C)=O)cc1 [compound 16] (Ac-HSSKLQSL[PABC]-{Emetine(N2')})
[9]
  stability in human plasma (detection of 14 or emetine): Neither precursor 14 nor emetine was detected
Mice [1]; 25 mg/kg (402 nmol) IV
  observation at the MTD: acute distress followed by recovery within an hour of injection
Mice [1]; IV injection, mice
  Effects/observations at higher doses: Convulsion started about 1 min post injection at higher doses
Mice [1]; IV injection
  MTD (nmol injected): 402 nmol
Mice [1]; mice
  dose producing acute toxicity (convulsions and death): 50 mg/kg
  dose producing acute toxicity (convulsions and death), nmol: 804 nmol
[6]; five-day incubation at 37 °C
  stability (cleavage, hydrolysis/decomposition): no sign of cleavage or any form of hydrolysis/decomposition was detectable
[8]; 10% FBS, five-day incubation at 37 °C
  stability (cleavage, hydrolysis/decomposition): no sign of cleavage or any form of hydrolysis/decomposition was detectable
PC3; PC3 vs CWR22Rv1 and LNCaP, from IC50
  times less cytotoxic in non-PSA producing cells than in PSA producing cells: 7–9 times

## CC[C@H]1CN2CCc3cc(OC)c(OC)cc3[C@@H]2C[C@@H]1C[C@@H]1c2cc(OC)c(OC)cc2CCN1C(=S)[S-].[Na+] [compound 18]
Mice [1]; IV injection, mice
  Effects/observations at higher doses: No remarkable behavior even at higher doses. Mice remained alive
Mice [1]; IV injection
  MTD (nmol injected): > 4320 nmol
[3]; cancer cell lines, ref [6]–[9]
  in vitro cytotoxicity compared to emetine: much less toxic in vitro compared to emetine

## CC[C@H]1CN2CCc3cc(OC)c(OC)cc3[C@@H]2C[C@@H]1C[C@@H]1c2cc(OC)c(OC)cc2CCN1C(=O)/C=C(/C)C(=O)O [compound 19]
Mice [1]; IV injection, mice
  Effects/observations at higher doses: No remarkable behavior even at higher doses. Mice remained alive
Mice [1]; IV injection
  MTD (nmol injected): > 4218 nmol
[3]
  in vitro cytotoxicity compared to emetine: much less toxic in vitro compared to emetine

## CC[C@H]1CN2CCc3cc(OC)c(OC)cc3[C@@H]2C[C@@H]1C[C@@H]1c2cc(OC)c(OC)cc2CCN1C(=O)/C=C(/CC(=O)O)C(=O)O [compound 20]
Mice [1]; IV injection, mice
  Effects/observations at higher doses: No remarkable behavior even at higher doses. Mice remained alive
Mice [1]; IV injection
  MTD (nmol injected): > 3926 nmol
[3]
  in vitro cytotoxicity compared to emetine: much less toxic in vitro compared to emetine

## CC[C@H]1CN2CCc3cc(OC)c(OC)cc3[C@@H]2C[C@@H]1C[C@@H]1c2cc(OC)c(OC)cc2CCN1C(=O)/C(C)=C(/C)C(=O)O [compound 21]
Mice [1]; IV injection, mice
  Effects/observations at higher doses: 32 mg/kg (1318 nmol) is toxic like emetine
Mice [10]
  lethal dose: 32 mg/kg

## CC[C@H]1CN2CCc3cc(OC)c(OC)cc3[C@@H]2C[C@@H]1C[C@@H]1c2cc(OC)c(OC)cc2CCN1C(=O)CCC(=O)O [compound 22]
Mice [1]; IV injection, mice
  Effects/observations at higher doses: No remarkable behavior. Mice remained alive
Mice [1]; IV injection
  MTD (nmol injected): > 4305 nmol
[3]
  in vitro cytotoxicity compared to emetine: much less toxic in vitro compared to emetine

## CC[C@H]1CN2CCc3cc(OC)c(OC)cc3[C@@H]2C[C@@H]1C[C@@H]1c2cc(OC)c(OC)cc2CCN1C(=O)[C@@H]1CCCN1C(=O)[C@H](C)N [compound 23]
Mice [1]; IV injection, mice
  Effects/observations at higher doses: Convulsion and death within 1 min of injection at 16 mg/kg (617 nmol)
Mice [1]; mice
  dose producing acute toxicity (convulsions and death): 16 mg/kg
  dose producing acute toxicity (convulsions and death), nmol: 617 nmol
[3]; in vitro cytotoxicity assays, ref [9]
  in vitro cytotoxicity compared to 10: significantly less active

## CC[C@H]1CN2CCc3cc(OC)c(OC)cc3[C@@H]2C[C@@H]1C[C@@H]1c2cc(OC)c(OC)cc2CCN1C(=O)OCc1ccc(NC(=O)[C@@H]2CCCN2C(=O)[C@H](C)NC(=O)[C@@H]2CCCN2C(=O)[C@H](C)NC(C)=O)cc1 [compound 24] (Ac-APAP[PABC]-{Emetine(N2')})
Mice [1]; IV injection, mice
  Effects/observations at higher doses: Intermittent convulsion started 1 min post injection of 33 mg/kg dose (818 nmol). Death occurred after about 8 min
Mice [1]; mice
  dose producing acute toxicity (convulsions and death): 33 mg/kg
  dose producing acute toxicity (convulsions and death), nmol: 818 nmol

## CC[C@H]1CN2CCc3cc(OC)c(OC)cc3[C@@H]2C[C@@H]1C[C@@H]1c2cc(OC)c(OC)cc2CCN1C(=O)OCc1ccc([N+](=O)[O-])cc1 [compound 25]
Mice [1]; IV injection, mice
  Effects/observations at higher doses: No remarkable behavior, no sign of toxicity. Mice remained alive
  dose without any observable sign of toxicity: 64 mg/kg
  dose without any observable sign of toxicity, nmol: 2425 nmol
Mice [1]; IV injection
  MTD (nmol injected): > 2425 nmol
[3]; different cancer cell lines, ref [6]–[9]
  fold less cytotoxic than emetine in vitro: about 200 fold

## CC[C@H]1CN2CCc3cc(OC)c(OC)cc3[C@@H]2C[C@@H]1C[C@@H]1c2cc(OC)c(OC)cc2CCN1C(=S)Nc1ccccc1 [compound 26]
Mice [1]; male, Balb/c, mouse, in vivo, iv
  dose without any observable sign of toxicity: up to 100 mg/kg
[3]; cancer cell lines, ref [6]–[9]
  in vitro cytotoxicity compared to emetine: less cytotoxic in vitro than emetine
